Measured values: US12428406B2 (PMV Pharmaceuticals, Inc., priority 2019, dated 2025)

Biological target: T1, p53 Y220C (Homo sapiens, UniProt P04637, Y220C)
T1 construct: The recombinant protein was a truncation mutant containing only amino acids 94-312 of p53; made in house; host or cells: E. coli
Experiment: In vitro DNA binding activity assay (HTRF / TR-FRET): stabilization of p53 Y220C and increase of its DNA binding activity
Type: biochemical
Details: recombinant His-tagged p53 Y220C DNA binding domain (aa 94-312), biotin-labeled consensus DNA, incubated at 27° C. or 29° C. for 60 min
In short: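 Compounds from 4.5 mM DMSO stocks, 3-fold serial dilutions; room-temperature incubations of 15 and 20 min. SC150 = concentration raising DNA binding by 50% over no-compound control.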

T1 sequence (P04637 94-312, change not shown): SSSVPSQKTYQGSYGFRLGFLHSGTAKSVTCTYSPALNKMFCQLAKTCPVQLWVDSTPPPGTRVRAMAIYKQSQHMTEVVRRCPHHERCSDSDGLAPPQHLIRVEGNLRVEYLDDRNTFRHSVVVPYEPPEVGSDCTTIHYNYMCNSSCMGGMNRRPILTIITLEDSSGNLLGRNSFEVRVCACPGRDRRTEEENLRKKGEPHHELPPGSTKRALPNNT

Structure (SMILES)	SC150 (concentration of the compound required to increase the DNA binding activity by 50%)
NS(=O)(=O)c1ccc(NCC#Cc2cc3c(N[C@H]4CC[C@H](N5CCC6(CC5)COC6)CC4)cccc3n2CC(F)(F)F)c(OCF)c1 [Compound 381A, 3-(fluoromethoxy)-4-{[3-(4-{[(1R,4R)-4-{2-oxa-7-azaspiro[3.5]nonan-7-yl}cyclohexyl]amino}-1-(2,2,2-trifluoroethyl)-1H-indol-2-yl)prop-2-yn-1-yl]amino}benzene-1-sulfonamide]	+ (+ = 0 μM ≤ SC150 < 0.05 μM)
COCC(O)CN1CCC(Nc2cccc3c2cc(C#CCNc2ccc(S(C)(=O)=O)cc2C(F)(F)F)n3CC(F)(F)F)CC1 (stereo not shown) [Compound 708A, 1-(4-{[2-(3-{[4-methanesulfonyl-2-(trifluoromethyl)phenyl]amino}prop-1-yn-1-yl)-1-(2,2,2-trifluoroethyl)-1H-indol-4-yl]amino}piperidin-1-yl)-3-methoxypropan-2-ol]	++ (++ = 0.05 μM ≤ SC150 < 0.1 μM)
COc1cc(S(C)(=O)=O)ccc1NCC#Cc1cc2c(N[C@H]3CC[C@H](N4CCC5(CCO5)CC4)CC3)cccc2n1CC(F)(F)F [Compound 383A, 2-{3-[(4-methane-sulfonyl-2-methoxy-phenyl)amino]prop-1-yn-1-yl}-N-[(1R,4R)-4-{1-oxa-7-azaspiro[3.5]nonan-7-yl}cyclohexyl]-1-(2,2,2-trifluoroethyl)-1H-indol-4-amine]	+ (+ = 0 μM ≤ SC150 < 0.05 μM)
CCNC(=O)c1ccc(NCC#Cc2cc3c(N[C@H]4CC[C@@H](N5CC6(COC6)C5)CC4)cccc3n2CC(F)(F)F)c(OC)c1 [Compound 238A, N-ethyl-3-methoxy-4-{[3-(4-{[(1R,4R)-4-{2-oxa-6-azaspiro[3.3]heptan-6-yl}cyclohexyl]amino}-1-(2,2,2-trifluoro-ethyl)-1H-indol-2-yl)prop-2-yn-1-yl]amino} benzamide]	+ (+ = 0 μM ≤ SC150 < 0.05 μM)
CS(=O)(=O)c1ccc(NCC#Cc2cc3c(N[C@H]4CC[C@H](N5CCC6(CC5)COC6)CC4)cccc3n2CC(F)(F)F)c(OCC#N)c1 [Compound 389A, 2-(5-methanesulfonyl-2-{[3-(4-{[(1R,4R)-4-{2-oxa-7-azaspiro[3.5]nonan-7-yl}cyclohexyl]amino}-1-(2,2,2-trifluoroethyl)-1H-indol-2-yl)prop-2-yn-1-yl]amino}phenoxy)acetonitrile]	+ (+ = 0 μM ≤ SC150 < 0.05 μM)
CS(=O)(=O)c1ccc(NCC#Cc2cc3c(N[C@H]4CC[C@H](N5CC6CC(C5)O6)CC4)cccc3n2CC(F)(F)F)c(OCC#N)c1 [Compound 407A, 2-(5-methanesulfonyl-2-{[3-(4-{[(1R,4R)-4-{6-oxa-3-azabicyclo[3.1.1]heptan-3-yl}cyclohexyl]amino}-1-(2,2,2-trifluoroethyl)-1H-indol-2-yl)prop-2-yn-1-yl]amino}phenoxy)acetonitrile]	+ (+ = 0 μM ≤ SC150 < 0.05 μM)
COCC(O)CN1CCC(Nc2cccc3c2c(C)c(C#CCNc2ccc(S(C)(=O)=O)cc2OC)n3CC(F)(F)F)CC1 (stereo not shown) [Compound 676A, 1-{4-[(2-{3-[(4-methanesulfonyl-2-methoxyphenyl)amino]prop-1-yn-1-yl}-3-methyl-1-(2,2,2-trifluoroethyl)-1H-indol-4-yl)amino]piperidin-1-yl}-3-methoxypropan-2-ol]	+++ (+++ = 0.1 μM ≤ SC150 < 0.2 μM)
COc1cc(S(C)(=O)=O)ccc1NCC#Cc1cc2c(N[C@H]3CC[C@H](N4CCOCC4)CC3)cccc2n1CC(F)F [Compound 180A, 1-(2,2-difluoroethyl)-2-{3-[(4-methane-sulfonyl-2-methoxy-phenyl)amino]prop-1-yn-1-yl}-N-[(1R,4R)-4-(morpholin-4-yl)cyclo-hexyl]-1H-indol-4-amine]	+ (+ = 0 μM ≤ SC150 < 0.05 μM)
COc1cc(S(=O)(=O)N2CCOCC2)ccc1NCC#Cc1cc2c(NC3CCOCC3)cccc2n1CC(F)(F)F [Compound 1002A, 2-(3-{[2-methoxy-4-(morpholine-4-sulfonyl)phenyl]amino}prop-1-yn-1-yl)-N-(oxan-4-yl)-1-(2,2,2-trifluoroethyl)-1H-indol-4-amine]	+ (+ = 0 μM ≤ SC150 < 0.05 μM)
COc1cc(S(N)(=O)=O)ccc1NCC#Cc1cc2c(NC3CCN(CC(C)OC(C)=O)CC3)cccc2n1CC(F)(F)F (stereo not shown) [Compound 599A, 1-{4-[(2-{3-[(2-methoxy-4-sulfamoylphenyl)amino]prop-1-yn-1-yl}-1-(2,2,2-trifluoroethyl)-1H-indol-4-yl)amino]piperidin-1-yl}propan-2-yl acetate]	+ (+ = 0 μM ≤ SC150 < 0.05 μM)
COc1cc(S(C)(=O)=O)ccc1NCC#Cc1cc2c(N[C@H]3CC[C@H](N4CC5(COC5)C4)CC3)cccc2n1CC(F)(F)F [Compound 202A, 2-{3-[(4-methanesulfonyl-2-methoxyphenyl)amino]prop-1-yn-1-yl}-N-[(1R,4R)-4-{2-oxa-6-azaspiro[3.3]heptan-6-yl}cyclohexyl]-1-(2,2,2-trifluoroethyl)-1H-indol-4-amine]	+ (+ = 0 μM ≤ SC150 < 0.05 μM)
COc1cc(S(N)(=O)=O)ccc1NCC#Cc1cc2c(NC3CCC4(CC3)OCCO4)cccc2n1CC(F)(F)F [Compound 63A, 4-({3-[4-({1,4-dioxaspiro[4.5]decan-8-yl}amino)-1-(2,2,2-trifluoroethyl)-1H-indol-2-yl]prop-2-yn-1-yl}amino)-3-methoxy-benzene-1-sulfonamide]	+ (+ = 0 μM ≤ SC150 < 0.05 μM)
CNC(=O)c1ccc(NCC#Cc2cc3c(N[C@H]4CC[C@H](N5CC6CC(C5)O6)CC4)cccc3n2CC(F)(F)F)c(OC)c1 [Compound 402A, 3-methoxy-N-methyl-4-{[3-(4-{[(1R,4R)-4-{6-oxa-3-azabicyclo[3.1.1]heptan-3-yl}cyclohexyl]amino}-1-(2,2,2-trifluoroethyl)-1H-indol-2-yl)prop-2-yn-1-yl]amino}benzamide]	+ (+ = 0 μM ≤ SC150 < 0.05 μM)
COc1cc(S(C)(=O)=O)ccc1NCC#Cc1cc2c(N[C@H]3CC[C@@H](N4CC5(COC5)C4)CC3)cccc2n1CC(F)(F)F [Compound 203A, 2-{3-[(4-methanesulfonyl-2-methoxyphenyl)amino]prop-1-yn-1-yl}-N-[(1S,4S)-4-{2-oxa-6-azaspiro[3.3]heptan-6-yl}cyclohexyl]-1-(2,2,2-trifluoroethyl)-1H-indol-4-amine]	+ (+ = 0 μM ≤ SC150 < 0.05 μM)

The next lines start with the values.

SC150 (concentration of the compound required to increase the DNA binding activity by 50%)	Structure (SMILES)
+ (+ = 0 μM ≤ SC150 < 0.05 μM)	COc1cc(C(=O)N(C)C)ccc1NCC#Cc1cc2c(N[C@@H]3CCN(C)C[C@@H]3F)cccc2n1CC(F)(F)F [Compound 942A, 4-{[3-(4-{[(3S,4R)-3-fluoro-1-methylpiperidin-4-yl]amino}-1-(2,2,2-trifluoroethyl)-1H-indol-2-yl)prop-2-yn-1-yl]amino}-3-methoxy-N,N-dimethylbenzamide]
+ (+ = 0 μM ≤ SC150 < 0.05 μM)	COc1cc(C(=O)NC[C@@H](C)O)ccc1NCC#Cc1cc2c(N[C@@H]3CCN(C)C[C@@H]3F)cccc2n1CC(F)(F)F [Compound 957A, 4-((3-(4-(((3S,4R)-3-fluoro-1-methylpiperidin-4-yl)amino)-1-(2,2,2-trifluoroethyl)-1H-indol-2-yl)prop-2-yn-1-yl)amino)-N—((R)-2-hydroxypropyl)-3-methoxybenzamide]
+ (+ = 0 μM ≤ SC150 < 0.05 μM)	COc1cc(C(=O)O)ccc1NCC#Cc1cc2c(N[C@H]3CCN(CC(N)=O)C[C@H]3F)cccc2n1CC(F)(F)F [Compound 925A]
+ (+ = 0 μM ≤ SC150 < 0.05 μM)	CN1CCC(Nc2cccc3c2cc(C#CCNc2ccc(C(=O)N(C)C)s2)n3CC(F)(F)F)CC1 [Compound 525A, N,N-dimethyl-5-((3-(4-((1-methylpiperidin-4-yl)amino)-1-(2,2,2-trifluoroethyl)-1H-indol-2-yl)prop-2-yn-1-yl)amino)thiophene-2-carboxamide]
+ (+ = 0 μM ≤ SC150 < 0.05 μM)	CNC(=O)c1ccc(NCC#Cc2cc3c(NC4CCN(CC(O)CO)CC4)cccc3n2CC(F)(F)F)c(OC)c1 (stereo not shown) [Compound 658A, 4-{[3-(4-{[1-(2,3-dihydroxypropyl)piperidin-4-yl]amino}-1-(2,2,2-trifluoroethyl)-1H-indol-2-yl)prop-2-yn-1-yl]amino}-3-methoxy-N-methylbenzamide]
++ (++ = 0.05 μM ≤ SC150 < 0.1 μM)	COc1cc(Cl)ccc1NCC#Cc1cc2c(NC3CCN(C)CC3)cccc2n1CC(F)(F)F [Compound 512A, 2-{3-[(4-chloro-2-methoxyphenyl)amino]prop-1-yn-1-yl}-N-(1-methylpiperidin-4-yl)-1-(2,2,2-trifluoroethyl)-1H-indol-4-amine]
+ (+ = 0 μM ≤ SC150 < 0.05 μM)	CCOC(=O)c1ccc(NCC#Cc2cc3c(N[C@H]4CCN(C(C)C)C[C@H]4F)cccc3n2CC(F)(F)F)c(OC)c1 [Compound 825A]
++ (++ = 0.05 μM ≤ SC150 < 0.1 μM)	COc1cc(C(=O)O)ccc1NCC#Cc1cc2c(N[C@H]3CCN(C)C[C@@H]3F)cccc2n1CC(F)(F)F [Compound 789A, 4-{[3-(4-{[(3S,4S)-3-fluoro-1-methylpiperidin-4-yl]amino}-1-(2,2,2-trifluoroethyl)-1H-indol-2-yl)prop-2-yn-1-yl]amino}-3-methoxybenzoic acid]
